# Where a SMILES comes first, the peptide text is derived from it. Where no end group is shown, it is not given here. [ ]: non-standard residue; d: D form.
# Columns and labels:
# trypsin = test: Enzymatic stability toward trypsin; format: in vitro ADME; details: 15 μL 10 mM peptide in 285 μL trypsin solution (10 μg/mL), 37 °C, after incubation for 360 min as printed, RP-HPLC, triplicate
# Procedure: The enzymatic stability of SPA toward trypsin and mice serum was determined following a procedure reported in our previous study (Song et al., [2013]). A portion of 15 μL peptide stock solution (10 mM) was added to 285 μL trypsin solution (10 μg/mL) or 100% serum. […] A portion of 40 μL aliquots were diluted with 80 μL water/acetonitrile (60:40 v/v) containing 1% TFA and analyzed by RP-HPLC (Waters). The peptides were eluted using a liner gradient of 5–95% acetonitrile in 0.1% trifluoroacetic acid at a flow rate of 1 mL/min within 30 min on a C18 column (Waters XBridge Columns, 10 μM, 4.6*250 mm). The remaining full-length peptide concentration was normalized with respect to the initial concentration.
# [1] = Enzymatic stability in serum; format: in vitro ADME; details: 15 μL 10 mM peptide in 285 μL 100% mice serum, 37 °C, 0–3 h, RP-HPLC, triplicate
# Procedure: The enzymatic stability of SPA toward trypsin and mice serum was determined following a procedure reported in our previous study (Song et al., [2013]). A portion of 15 μL peptide stock solution (10 mM) was added to 285 μL trypsin solution (10 μg/mL) or 100% serum. Incubations were carried out at 37 °C for 0, 0.5, 1, 2 and 3 h in triplicate. A portion of 40 μL aliquots were diluted with 80 μL water/acetonitrile (60:40 v/v) containing 1% TFA and analyzed by RP-HPLC (Waters). The peptides were eluted using a liner gradient of 5–95% acetonitrile in 0.1% trifluoroacetic acid at a flow rate of 1 mL/min within 30 min on a C18 column (Waters XBridge Columns, 10 μM, 4.6*250 mm). The remaining full-length peptide concentration was normalized with respect to the initial concentration.
# CHO cells [2] = test: LDH leakage assay; format: cell-based; details: 1 h, 100% = 0.2% Triton X-100
# Procedure: The LDH leakage was measured using the Cytotoxicity Detection Kit (Roche). CHO cells were seeded at 1 × 10^4 cells/well in 96-well plate 24 h before treatment. After treatment with SPA at various concentrations for 1 h, 40 μL medium was transferred to a 96-well plate and incubated for 15 min with 40 μL reaction mixture, followed by 20 μL stop solution. […] was measured using microplate reader (Thermo scientific) at 490 nm. Untreated cells were defined as no leakage and 100% leakage was defined as total LDH release by lysing cells in 0.2% Triton X-100.
# Erythrocytes = test: Hemolysis assay; format: cell-based; details: mice erythrocytes, even at 200 μM, 1 h, 37 °C
# Procedure: Erythrocytes were obtained from freshly collected mice blood and resuspended in PBS to 4% (V/V). After 100 μL the erythrocyte suspension being seeded in 96-well plate, the cells were incubated with 100 μL peptides solution at different concentrations for 1 h at 37 °C. The plates were centrifuged at 1000 g for 10 min and the released hemoglobin was determined using microplate reader (Thermo scientific) at 450 nm. PBS and 0.1% Triton X-100 were used as agents for 0 and 100% hemolysis, respectively.
# CHO cells [3] = test: MTT cytotoxicity assay of SPA (24 h); format: cell-based; details: various concentrations
# Procedure: Cells were treated with SPA at various concentrations for 24 h. The cytotoxicity of SPA was determined by MTT assay. The absorbance was determined using microplate reader (Thermo scientific) at 570 nm.
# CHO cells [4] = test: MTT antiproliferative assay of SPA-CPT conjugate; format: cell-based; details: treated 1 h, washed, cultured 72 h
# Procedure: CHO, MDA-MB-231and U251 cells were seeded at 5 × 10^3 cells/well in 96-well plates 24 h before treatment, respectively. […] After washing with medium to remove the remaining agents, the cells were cultured for 72 h and the antiproliferative effects of the relevant agents were determined by the MTT assay.
# [5] = RP-HPLC retention time as measure of peptide hydrophobicity; format: physicochemical; details: Table S1; chromatographic, C18 (Waters XBridge, 4.6*250 mm), linear gradient 5–95% acetonitrile in 0.1% trifluoroacetic acid within 30 min, 1 mL/min
# Procedure: Purity analysis was checked by analytical RP-HPLC (Waters), and the peptides were eluted using a liner gradient of 5–95% acetonitrile in 0.1% trifluoroacetic acid at a flow rate of 1 mL/min within 30 min on a C18 column (Waters XBridge Columns, 10 μM, 4.6*250 mm). The retention time of each peptide was determined when the peak was at its maximum height.
# CHO cells [6] = test: Flow cytometry assay of cellular uptake; format: cell-based; details: 1 h
# Procedure: CHO cells were treated with 10 μM FITC labeled peptides for 1 h, and then the cells were harvested and finally resuspended in PBS after washing twice with PBS. The fluorescence of cells was analyzed on a FACS Caliber. To explore the uptake mechanism of SPA, CHO cells were preincubated at 4 °C and then treated with 10 μM FITC-labeled SPA at 4 °C or 37 °C for 1 h. In experiments with chloroquine, CHO cells were incubated with FITC-labeled SPA and 100 μM chloroquine at 37 °C for 1 h. In experiments with endocytosis inhibitor, cells were pretreated with 10 μg/mL chlorpromazine, 50 μM amiloride or 5 mM methyl-β-cyclodextrin at 37 °C for 0.5 h and then treated with 10 μM FITC-labeled SPA for 1 h. Cells were harvested and analyzed by a FACS Caliber (BD).
compound,measurement,setting,value
"CC(C)C[C@H](NC(=O)[C@H](CC(C)C)NC(=O)[C@@H](Cc1c[nH]c2ccccc12)NC(=O)[C@H](Cc1ccccc1)NC(=O)[C@@H](Cc1c[nH]c2ccccc12)NC(=O)[C@H](CCC(N)=O)NC(=O)[C@@H](Cc1c[nH]c2ccccc12)NC(=O)[C@@H]1CCCN1C(=O)[C@H](CCCCN)NC(=O)[C@@H]1CCCN1C(=O)[C@H](N)CCCN=C(N)N)C(N)=O [SPA, [D-Arg^1, D-Trp^5,7,9, Leu^11]Substance P] (H-[dR]PKP[dW]Q[dW]F[dW]LL-NH2)",stability against trypsin (remaining full-length peptide),trypsin,not hydrolyzed
same,stability in serum (remaining full-length peptide),[1],significantly greater stability in serum than L-SPA
same,LDH leakage,CHO cells [2]; 160 μM,35%
same,hemolytic activity,Erythrocytes,low hemolytic activity
same,cytotoxicity (MTT),CHO cells [3],low cytotoxicity
same,cytotoxicity / antiproliferative effect (MTT),CHO cells [4],no notable cytotoxicity
"CC[C@H](C)[C@H](NC(=O)CN)C(=O)NCC(=O)N[C@@H](C)C(=O)N[C@H](C(=O)N[C@@H](CC(C)C)C(=O)N[C@@H](CCCCN)C(=O)N[C@H](C(=O)N[C@@H](CC(C)C)C(=O)N[C@H](C(=O)N[C@H](C(=O)NCC(=O)N[C@@H](CC(C)C)C(=O)N1CCC[C@H]1C(=O)N[C@@H](C)C(=O)N[C@@H](CC(C)C)C(=O)N[C@H](C(=O)N[C@@H](CO)C(=O)N[C@@H](Cc1c[nH]c2ccccc12)C(=O)N[C@H](C(=O)N[C@@H](CCCCN)C(=O)N[C@@H](CCCNC(=N)N)C(=O)N[C@@H](CCCCN)C(=O)N[C@@H](CCCNC(=N)N)C(=O)N[C@@H](CCC(N)=O)C(=O)N[C@@H](CCC(N)=O)C(N)=O)[C@@H](C)CC)[C@@H](C)CC)[C@@H](C)O)[C@@H](C)O)C(C)C)C(C)C [melittin, reference compound]",LDH leakage,CHO cells [2]; 50 μM (positive control),~100%
"FITC-AHX-YGRKKRRQRRR-NH2 [FITC-TAT, FITC-labeled cell-penetrating peptide TAT used as uptake comparator, reference compound]",retention time,[5],16.0 min
same,cellular uptake efficiency (mean fluorescence intensity),"CHO cells [6]; 10 μM FITC labeled peptides, flow cytometry",cellular uptake efficiency of SPA was lower than that of TAT
"FITC-AHX-rPKPwQwFwLL-NH2 [FITC-SPA, SPA labeled with FITC at the N-terminus via an aminohexanoic acid spacer]",retention time,[5],21.2 min
same,mean fluorescence on cotreatment with chloroquine,"CHO cells [6]; 10 μM FITC-labeled SPA with 100 μM chloroquine, 37 °C",significantly increased
RPKPWQWFWLL-NH2 [L-SPA],stability against trypsin (remaining full-length peptide),trypsin,almost completely degraded
same,stability in serum (remaining full-length peptide),[1],SPA exhibited significantly greater stability in serum than L-SPA
